Assay results published in PMC11714206, “Massively Parallel Screening of Toll/Interleukin‐1 Receptor (TIR)‐Derived Peptides Reveals Multiple Toll‐Like Receptors (TLRs)‐Targeting Immunomodulatory Peptides” (Advanced Science, 2024).
One block for each sequence: values may come before it.

Target: T1, MAL^TIR (Homo sapiens, UniProt P58753)
T1 construct: MAL (residues 79–221); 6xHis; made in house; host or cells: E. coli BL21 (DE3)
Assay: T‐Surf phage library (P8 and P3) selection against MAL^TIR, four rounds, NGS read counts
Type: binding
Conditions: for P3_MAL Rank (after) / P3_MAL Rank (before): P3 library; for P8_MAL Rank (after) / P8_MAL Rank (before): P8 library; for Population: 4th round of selection against MAL TIR, share of NGS reads
How it was run: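 Four panning rounds on TIR domain adsorbed at 5 µg mL^−1; binding 1 h at 20–22 °C, elution with 100 mM HCl. Output: NGS read counts of round‐4 pools versus naïve library.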

[1] = selection against MAL, rank by count after grouping
[2] = selection against MAL, rank by count before grouping
[3] = selection against MAL TIR, rank by count after grouping
[4] = selection against MAL TIR, rank by count before grouping
[5] = P3_MAL: rank by count after grouping
[6] = P3_MAL: rank by count before grouping
[7] = 4R selection against MAL, rank after grouping
[8] = 4R selection against MAL, rank before grouping
[9] = P8_MAL: rank by count after grouping
[10] = P8_MAL: rank by count before grouping
[11] = P3_MAL pool: P3 T-Surf phage library
[12] = selection against MAL, rank after grouping
[13] = selection against MAL, rank before grouping
[14] = P8_MAL pool: P8 T-Surf phage library

T1 sequence (P58753 79-221): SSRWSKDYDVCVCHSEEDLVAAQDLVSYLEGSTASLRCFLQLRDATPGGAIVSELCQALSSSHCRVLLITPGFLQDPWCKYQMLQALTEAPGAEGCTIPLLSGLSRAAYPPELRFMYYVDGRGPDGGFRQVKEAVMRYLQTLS

P8_MAL Rank (after) [7]: 640
P8_MAL Rank (before) [8]: 2171
Sequence: RDFVAYLFQALANKGL

Rank (after) [5]: 446
Rank (before) [6]: 2749
Sequence: PNLRTTVLKYLIRTKT

P8_MAL Rank (after) [1]: 700
P8_MAL Rank (before) [2]: 2491
Sequence: SLLYDHLRRLGIRAIM

Rank (after) [9]: 420
Rank (before) [10]: 2221
Sequence: RNFVAYLLQALAHKCI

P8_MAL Rank (after) [7]: 654
P8_MAL Rank (before) [8]: 2590
Sequence: TFLGHLYNALLRSDGR

P3_MAL Rank (after) [3]: 279
P3_MAL Rank (before) [4]: 1756
Sequence: GWFREGLWRLLELSKK

P8_MAL Rank (after) [3]: 255
P8_MAL Rank (before) [4]: 1859
Sequence: AFLYTFLINPTHPTNS

P8_MAL Rank (after) [7]: 609
P8_MAL Rank (before) [8]: 1751
Sequence: AFFRDQLRTVLGKPTM

P3_MAL Rank (after) [12]: 544
P3_MAL Rank (before) [13]: 1842
Sequence: ALHNAFWDRLWTKLAP

P8_MAL Rank (after) [12]: 517
P8_MAL Rank (before) [13]: 1886
Sequence: AFLYTVLINLTHTTYF

P3_MAL Rank (after) [1]: 728
P3_MAL Rank (before) [2]: 2544
Sequence: RLRKWKGALHHFLSWG

P3_MAL Rank (after) [3]: 226
P3_MAL Rank (before) [4]: 2304
Sequence: LKAERWRQALEKAGKL

Population [14]: 0.00278%
Sequence: WFYERLVILILRDTKV

Rank (after) [5]: 476
Rank (before) [6]: 3209
Sequence: SSCLEGLWRLLELSKK

P8_MAL Rank (after) [7]: 653
P8_MAL Rank (before) [8]: 2349
Sequence: QLIQQLIELHLDQLHL

Rank (after) [9]: 158
Rank (before) [10]: 1511
Sequence: YFLHSCCLAVRKPSI

P3_MAL Rank (after) [12]: 555
P3_MAL Rank (before) [13]: 1462
Sequence: YAFTDHLHRYLVQRSE

The remaining lines, values behind:

Sequence: AFFWEQLRPALKERLP
P3_MAL Rank (after) [1]: 746
P3_MAL Rank (before) [2]: 1787

Sequence: WFYERMVSMILRDTKV
P8_MAL Rank (after) [3]: 280
P8_MAL Rank (before) [4]: 1261

Sequence: PKLRTKVMNYLMRTKT
Rank (after) [5]: 155
Rank (before) [6]: 2759

Sequence: TRFCDRRCLTVAGSSA
Rank (after) [5]: 409
Rank (before) [6]: 3235

Sequence: SLQYAHLRWLGIRAFL
P8_MAL Rank (after) [3]: 206
P8_MAL Rank (before) [4]: 2523

Sequence: YTALTNSGFHTFLDNE
P3_MAL Rank (after) [3]: 217
P3_MAL Rank (before) [4]: 1547

Sequence: YNFISHLYAALQRKHVET
P3_MAL Rank (after) [3]: 253
P3_MAL Rank (before) [4]: 754

Sequence: KEVDGWRDALTQVASL
P3_MAL Rank (after) [3]: 196
P3_MAL Rank (before) [4]: 3547

Sequence: VTKLKKGKSIAPKLLR
Rank (after) [9]: 469
Rank (before) [10]: 1562

Sequence: YAFTGHLHRYLVQRGA
Population [11]: 0.00338%

Sequence: AFFWEQLRTLLSKPTM
Rank (after) [9]: 433
Rank (before) [10]: 1673

Sequence: AFFCTQLKSVLGNPTI
P8_MAL Rank (after) [7]: 587
P8_MAL Rank (before) [8]: 1588

Sequence: YNFISHLHRYLVQRGV
P3_MAL Rank (after) [12]: 562
P3_MAL Rank (before) [13]: 1581

Sequence: NQWRNELTAAANLNGW
P3_MAL Rank (after) [12]: 508
P3_MAL Rank (before) [13]: 3405

Sequence: AFFWAKLKRVLGNPTL
P8_MAL Rank (after) [12]: 525
P8_MAL Rank (before) [13]: 1652

Sequence: RVFLSHLRHHLQAKDH
Population [11]: 0.0124%

Sequence: AFFWAQLKQLLRSDGR
P8_MAL Rank (after) [7]: 629
P8_MAL Rank (before) [8]: 1610

Sequence: TFLGHLYNALVQTGIP
Rank (after) [9]: 112
Rank (before) [10]: 2569

Sequence: ESILNQLRRSSHSISN
P3_MAL Rank (after) [12]: 542
P3_MAL Rank (before) [13]: 2054

Sequence: RNFVADLYQALANKGI
Rank (after) [9]: 131
Rank (before) [10]: 2186

Sequence: ELLLSVFMTLSAPRTV
P8_MAL Rank (after) [12]: 577
P8_MAL Rank (before) [13]: 2043

Sequence: AFLYTFLFNLTHQTNS
P8_MAL Rank (after) [7]: 590
P8_MAL Rank (before) [8]: 1883

Sequence: AFFWAQLKNVLGSPTI
P8_MAL Rank (after) [1]: 718
P8_MAL Rank (before) [2]: 1642

Sequence: MVRVKAFHKRLKTALG
Rank (after) [5]: 438
Rank (before) [6]: 2922

Sequence: AFFWAQLNSVLGNTTM
P8_MAL Rank (after) [1]: 710
P8_MAL Rank (before) [2]: 1608

Sequence: NQWRNALTAEAKLSGW
P3_MAL Rank (after) [3]: 268
P3_MAL Rank (before) [4]: 3414

Sequence: AFFWAQLKSVLGNPTL
Population [14]: 0.00309%

Sequence: YAFTGHLRHHLQAKDH
Rank (after) [5]: 120
Rank (before) [6]: 394

Sequence: AFLYTFLLNLTHPTHF
Rank (after) [9]: 162
Rank (before) [10]: 1829

Sequence: AFLYTFLNNLIHPTTF
Rank (after) [9]: 145
Rank (before) [10]: 1868

Sequence: AFFWPKLKSGLGNPTM
P8_MAL Rank (after) [7]: 635
P8_MAL Rank (before) [8]: 1717

Sequence: DFLSHLIEAFSRMHIN
P8_MAL Rank (after) [12]: 504
P8_MAL Rank (before) [13]: 1972

Sequence: HLLKIVLEKFASHRSS
P8_MAL Rank (after) [7]: 614
P8_MAL Rank (before) [8]: 2335

Sequence: KSILDTEARIWAGVR
P3_MAL Rank (after) [1]: 695
P3_MAL Rank (before) [2]: 3728

Sequence: HFFWVKLKSILGETSL
P8_MAL Rank (after) [7]: 592
P8_MAL Rank (before) [8]: 2396

Sequence: WFYGRLVSLILRDTKV
Population [14]: 0.0034%
